# According to patent publication US20140315889A1, “HYDROXAMATE DERIVATIVES FOR HDAC INHIBITOR, AND THE PHARMACEUTICAL COMPOSITION COMPRISING THEREOF” (CHONG KUN DANG PHARMACEUTICAL CORP., priority 2011, published 2014):
# How the values were obtained:
# [1] = test system: collagen-induced arthritis model; assay: Effectiveness of compound 237 in a collagen-induced arthritis model; type: in vivo
# From the text: 6-week aged male DBA1J mice were used in the experiment. The animal facility was kept at constant temperature and constant humidity with a 12-hr dark/12-hr light cycle, and the animals were allowed to access food and water ad libitum. The animals were acclimated to the cage for 7 days.
# Each arthritis-onset animals were selected and then promptly used in the experiments. The experimental animal groups consist of • A. a vehicle-control group administered with only vehicle once a day via s.c. (subcutaneous injection), • B. a compound test group administered with compound 237 in dose of 15 mg/kg q.d. (once a day) via s.c., • C. a compound test group administered with compound 237 in dose of 15 mg/kg b.i.d. (twice a day) via s.c., and • D. a compound test group administered with compound 237 in dose of 30 mg/kg q.d. via s.c.
# A solution of compound 237 for administration was prepared using Cremophore EL:Ethanol:Saline=1.5:1.5:7 as a vehicle just before administration. It was administered in a volume of 5 ml/kg via s.c. with each doses of 15 and 30 mg/kg once or twice a day.
# Bovine type 2 collagen (Chondrex) and complete Freund's adjuvant (Chondrex) are mixed in 1:1 to become an emulsion. Each 0.1 ml of the obtained emulsion was injected to the tail of each mouse intradermally for immunization. After 21 days, Bovine type 2 collagen (Chondrex) and incomplete Freund's adjuvant (Chondrex) are mixed in 1:1 to become an emulsion. Each 0.1 ml of the obtained emulsion was injected to the hips of each mouse intradermally for boosting. After boosting, the mice were divided in each groups, and administered with compound 237 or only vehicle according to the administration schedule. Their body weights and clinical scores were evaluated three times per week.
# From each four feet of a mouse, the clinical scores were evaluated according to the following criterion and added together thereby to determine the clinical score of the mouse (normal, 0; and the most severe edema, 16).
# All the results were expressed as mean±SEM, and the experimented groups were compared with each other using one-way ANOVA test (Dunnett's test, p<0.001).
# [2] = target: HDAC3 (Homo sapiens, UniProt O15379); assay: HDAC enzyme activity test, HDAC3; type: biochemical; conditions: Table 11, eleven HDAC isozymes; read-out: Inhibition ability (IC50) against HDAC3
# Experimental: (§1) Then, 0.3 μg of enzyme and 10 μM of substrate per well were added, reacted at 30° C. for 60 minutes. Thereto, Fluor de Lys® Developer II (BML-KI176) was added and reacted for 30 minutes. […] From the data, the respective IC50 were calculated by GraphPad Prism 4.0 program.
# [3] = target: HDAC2 (Homo sapiens, UniProt Q92769); assay: HDAC enzyme activity test, HDAC2; type: biochemical; conditions: Table 11, eleven HDAC isozymes; read-out: Inhibition ability (IC50) against HDAC2
# Experimental: as §1
# Chain of HDAC2 (Q92769 whole entry, species assumed): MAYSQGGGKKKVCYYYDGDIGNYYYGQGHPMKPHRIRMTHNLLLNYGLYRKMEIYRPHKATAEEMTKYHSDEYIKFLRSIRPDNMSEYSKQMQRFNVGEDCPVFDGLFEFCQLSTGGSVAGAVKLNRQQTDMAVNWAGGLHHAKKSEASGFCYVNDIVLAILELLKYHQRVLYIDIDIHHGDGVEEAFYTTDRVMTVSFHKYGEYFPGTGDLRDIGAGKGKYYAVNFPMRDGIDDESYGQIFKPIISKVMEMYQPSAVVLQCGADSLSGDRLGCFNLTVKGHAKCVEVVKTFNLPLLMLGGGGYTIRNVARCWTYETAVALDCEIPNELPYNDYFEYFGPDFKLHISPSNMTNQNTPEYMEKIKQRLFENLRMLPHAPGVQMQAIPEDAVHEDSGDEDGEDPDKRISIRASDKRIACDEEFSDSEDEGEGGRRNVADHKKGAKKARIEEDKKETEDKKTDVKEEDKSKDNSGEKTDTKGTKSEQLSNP
# Chain of HDAC3 (O15379 whole entry, species assumed): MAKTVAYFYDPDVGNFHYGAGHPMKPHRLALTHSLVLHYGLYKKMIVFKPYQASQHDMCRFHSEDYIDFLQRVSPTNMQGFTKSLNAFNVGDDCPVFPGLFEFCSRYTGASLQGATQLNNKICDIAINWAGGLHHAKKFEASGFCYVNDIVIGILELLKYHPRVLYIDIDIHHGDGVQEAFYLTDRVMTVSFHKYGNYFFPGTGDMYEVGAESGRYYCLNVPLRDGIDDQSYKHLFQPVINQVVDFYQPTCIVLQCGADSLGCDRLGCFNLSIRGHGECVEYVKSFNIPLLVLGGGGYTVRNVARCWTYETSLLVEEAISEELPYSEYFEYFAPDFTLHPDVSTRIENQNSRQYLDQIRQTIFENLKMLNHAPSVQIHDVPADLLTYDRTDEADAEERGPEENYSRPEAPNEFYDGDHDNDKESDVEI
# Chain of HDAC3 (Q9Y618 395-489 partner limits assumed, species assumed): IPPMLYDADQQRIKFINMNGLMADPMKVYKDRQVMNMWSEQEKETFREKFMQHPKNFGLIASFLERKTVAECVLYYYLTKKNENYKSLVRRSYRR
SMILES,"clinical score decreased, compared with the control group (only vehicle) ([1]; 15 mpk b.i.d. s.c.) [%]","clinical score decreased, compared with the control group (only vehicle) ([1]; 15 mpk q.d. s.c.) [%]","clinical score decreased, compared with the control group (only vehicle) ([1]; 30 mpk q.d. s.c.) [%]","body-weight loss or toxic side effect ([1]; during the administration of drug, 15 and 30 mg/kg s.c.)",IC50 [2] [nM],IC50 [3] [nM]
"CC1(C)CC(=O)c2c(C(F)(F)F)nn(Cc3ccc(C(=O)NO)cc3)c2C1 [Compound 237, 4-((6,6-dimethyl-4-oxo-3-(trifluoromethyl)-4,5,6,7-tetrahydro-1H-indazol-1-yl)methyl)-N-hydroxybenzamide]",53,7,65,body-weight loss or toxic side effect was not observed,–,–
"CN1CCN(C(=O)N(CCCCCCC(=O)NO)c2ccc(-c3ccc4cnn(C)c4c3)cc2)CC1 [CKD-581, reference compound]",–,–,–,–,0.693,1.58
